Measured values published in patent publication US20200290034A1, “COMPOSITION AND METHOD FOR REGENERATING CATION EXCHANGE RESINS” (Tygrus, LLC, priority 2019, published 2020).

Legend:
[1] = Shelf-stability of stored samples; assay type: physicochemical; settings: closed containers at standard temperature and 50% relative humidity
Excerpt: The material produced in Example I is separated into individual samples. Some are stored in closed containers at standard temperature and 50% relative humidity to determine shelf-stability. Other samples are subjected to analytical procedures to determine composition. The test samples are subjected to FFTIR spectra analysis and titrated with hydrogen coulometry. The sample material has a molarity ranging from […] strength. The material has a gravimetric range greater than 1.15; with ranges greater than 1.9 in certain instances. The composition is stable and has a 1.87 to 1.78 molar material that contains 8 to 9% of the total moles of acid protons that are not charged balanced.

[2] = Excess hydrogen ion concentration and pH after admixing with water; settings: 5 ml material admixed in 5 ml deionized and distilled water, standard temperature and pressure

hydrogen (1+), triaqua-μ3-oxotri sulfate (1:1) [Example I]
shelf-stability [1]: stable | excess hydrogen ion concentration [2]: greater than 15 % by volume | pH [2]: 1
